{"source": "ChEMBL document CHEMBL3638470", "about": "“Substituted 5,6,7,8-tetrahydro-1,6-naphthyridines as factor XIa inhibitors” (2015)", "target": "Coagulation factor XI (Homo sapiens, UniProt P03951)", "sequence (P03951 19-387 limits assumed)": "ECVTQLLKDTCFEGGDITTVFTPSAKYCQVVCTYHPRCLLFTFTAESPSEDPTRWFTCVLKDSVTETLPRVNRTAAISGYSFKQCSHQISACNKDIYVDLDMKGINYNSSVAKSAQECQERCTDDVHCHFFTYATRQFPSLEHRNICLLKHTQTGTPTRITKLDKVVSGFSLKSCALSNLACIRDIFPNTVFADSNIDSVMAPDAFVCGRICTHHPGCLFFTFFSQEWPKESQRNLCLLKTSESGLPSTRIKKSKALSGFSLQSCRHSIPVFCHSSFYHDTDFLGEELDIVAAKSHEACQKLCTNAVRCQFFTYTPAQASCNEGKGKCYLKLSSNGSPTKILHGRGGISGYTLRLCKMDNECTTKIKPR", "sequence (P03951 388-625 limits assumed)": "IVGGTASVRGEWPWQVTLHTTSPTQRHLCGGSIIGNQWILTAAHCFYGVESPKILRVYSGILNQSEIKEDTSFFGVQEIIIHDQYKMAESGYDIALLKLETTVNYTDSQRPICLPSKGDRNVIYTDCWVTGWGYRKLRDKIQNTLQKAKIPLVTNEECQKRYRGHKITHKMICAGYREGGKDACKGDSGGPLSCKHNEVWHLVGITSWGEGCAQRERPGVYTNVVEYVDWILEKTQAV", "experiment": "Inhibition Assay: The effectiveness of compounds of the present invention as inhibitors of the coagulation factors XIa, Vila, IXa, Xa, Xlla, plasma kallikrein or thrombin, can be determined using a relevant purified serine protease, respectively, and an appropriate synthetic substrate. The rate of hydrolysis of the chromogenic or fluorogenic substrate by the relevant serine protease was measured both in the absence and presence of compounds of the present invention. […] A decrease in the rate of absorbance or fluorescence change in the presence of inhibitor is indicative of enzyme inhibition. Such methods are known to one skilled in the art.", "data": [{"smiles": "COC(=O)Nc1cccc(NC(=O)[C@@H]2c3ccccc3CCN2C(=O)/C=C/c2cc(Cl)ccc2-n2cnnn2)c1", "values": [{"measurement": "Ki", "result": 2790, "unit": "nM"}]}]}
